Where two headings read alike, the source gives them in different places.
Test system: HIV-1 viruses containing Gag region SDMs
Assay: Single-cycle infection assay with Gag SDM viruses
Format: cell-based
Description: Single-cycle infection assays were performed as described previously ([10]). Half-maximal effective concentration values were calculated as the compound concentration that inhibits 50% of the maximal signal (no-drug control), correcting for background. Background was determined as the residual signal observed upon inhibition at the highest concentration of a control protease inhibitor, nelfinavir (3 μM). Half-maximal fold change effective concentration versus WT values were calculated by dividing the EC50 of the recombinant virus by the EC50 of WT RepRlucNL4-3 virus run in parallel.

[1] = Human immunodeficiency virus 1, read-out: Mean ± SD EC50, A364V
[2] = Human immunodeficiency virus 1, read-out: Mean ± SD EC50, A366V
[3] = Human immunodeficiency virus 1, read-out: Mean ± SD EC50, A366V/V370M
[4] = Human immunodeficiency virus 1, read-out: Mean ± SD EC50, H358Y/ΔT371
[5] = Human immunodeficiency virus 1, read-out: Mean ± SD EC50, I333V/V362I
[6] = Human immunodeficiency virus 1, read-out: Mean ± SD EC50, I333V/V370
[7] = Human immunodeficiency virus 1, read-out: Mean ± SD EC50, I333V/V370A
[8] = Human immunodeficiency virus 1, read-out: Mean ± SD EC50, M367V
[9] = Human immunodeficiency virus 1, read-out: Mean ± SD EC50, R361K/V362I/L363M
[10] = Human immunodeficiency virus 1, read-out: Mean ± SD EC50, T33N/V370A
[11] = Human immunodeficiency virus 1, read-out: Mean ± SD EC50, T332N/V370A
[12] = Human immunodeficiency virus 1, read-out: Mean ± SD EC50, T332S/V362I/prR41G
[13] = Human immunodeficiency virus 1, read-out: Mean ± SD EC50, V362I
[14] = Human immunodeficiency virus 1, read-out: Mean ± SD EC50, V362I/A366V
[15] = Human immunodeficiency virus 1, read-out: Mean ± SD EC50, V362I/A366V/V370M
[16] = Human immunodeficiency virus 1, read-out: Mean ± SD EC50, V362I/H219Q
[17] = Human immunodeficiency virus 1, read-out: Mean ± SD EC50, V362I/H219Q/T332S
[18] = Human immunodeficiency virus 1, read-out: Mean ± SD EC50, V362I/V370A
[19] = Human immunodeficiency virus 1, read-out: Mean ± SD EC50, V362I/V370M
[20] = Human immunodeficiency virus 1, read-out: Mean ± SD EC50, V370A
[21] = Human immunodeficiency virus 1, read-out: Mean ± SD EC50, V370M
[22] = Human immunodeficiency virus 1, read-out: Mean ± SD EC50, Wild type
[23] = Human immunodeficiency virus 1, read-out: Mean ± SD EC50, ΔV370

`C=C(C)[C@@H]1CC[C@]2(NCCN3CCS(=O)(=O)CC3)CC[C@]3(C)[C@H](CC[C@@H]4[C@@]5(C)CC=C(C6=CC[C@@](CF)(C(=O)O)CC6)C(C)(C)[C@@H]5CC[C@]43C)[C@@H]12` [GSK’254] gave an MPI (A364V) of 45%, an MPI (A366V) of −7.6% and an MPI (A366V/V370M) of 26%. It also gave an MPI (H358Y/ΔT371) of 67%, an EC50 (Human immunodeficiency virus 1, V362I/V370A) of 4 nM and an EC50 [1] of over 3000 nM. The EC50 [2] was over 3000 nM, the EC50 [3] was over 3000 nM and the EC50 [4] was 35 ± 2 nM. For the same compound, the EC50 [5] was 39 ± 5 nM, the EC50 [6] was 11 ± 1 nM and the EC50 [7] was 11 ± 1 nM. It also gave an EC50 [8] of 15 ± 10 nM, an EC50 [9] of 14 ± 2 nM and an EC50 [10] of 3 nM. For the same compound, the EC50 [11] was 4 ± 1 nM, the EC50 [12] was 13 ± 9 nM and the EC50 [13] was 3 ± 1 nM. For the same compound, the EC50 [14] was over 3000 nM, the EC50 [15] was over 3000 nM and the EC50 [16] was 7 ± 2 nM. The EC50 [17] was 8 ± 3 nM, the EC50 [18] was 4 ± 1 nM and the EC50 [19] was 4 ± 2 nM. For the same compound, the EC50 [20] was 2 ± 1 nM, the EC50 [21] was 2 ± 1 nM and the EC50 [22] was 3 ± 2 nM. The EC50 [23] was 8 nM, the MPI (I333V/V362I) was 65% and the MPI (I333V/V370) was 86%. The MPI (I333V/V370A) was 86%, the MPI (M367V) was 89% and the MPI (R361K/V362I/L363M) was 89%. For the same compound, the MPI (T33N/V370A) was 94%, the MPI (T332N/V370A) was 94% and the MPI (T332S/V362I/prR41G) was 88%. For the same compound, the MPI (V362I) was 89%, the MPI (V362I/A366V) was −96% and the MPI (V362I/A366V/V370M) was 1%. For the same compound, the MPI (V362I/H219Q) was 91%, the MPI (V362I/H219Q/T332S) was 91% and the MPI (V362I/V370A) was 91%. It also gave an MPI (V362I/V370M) of 90%, an MPI (V370A) of 97% and an MPI (V370M) of 93%. For the same compound, the MPI (Wild type) was 98% and the MPI (ΔV370) was 96%.
Compound `C=C(C)[C@@H]1CC[C@]2(NCCN3CCS(=O)(=O)CC3)CC[C@]3(C)[C@H](CC[C@@H]4[C@@]5(C)CC=C(c6ccc(C(=O)O)cc6)C(C)(C)[C@@H]5CC[C@]43C)[C@@H]12` [GSK’795, reference compound] has an MPI (A364V) of 8%, an MPI (A366V) of 3% and an MPI (A366V/V370M) of 3%. It also gave an MPI (H358Y/ΔT371) of 18%, an EC50 [1] of over 3000 nM and an EC50 [2] of over 3000 nM. It also gave an EC50 [3] of over 3000 nM, an EC50 [4] of over 3000 nM and an EC50 [5] of over 3000 nM. It also gave an EC50 [6] of over 3000 nM, an EC50 [7] of over 3000 nM and an EC50 [8] of over 3000 nM. The EC50 [9] was over 3000 nM, the EC50 [10] was 30 nM and the EC50 [11] was 30 nM. The EC50 [12] was over 3000 nM, the EC50 [13] was 14 ± 6 nM and the EC50 [14] was over 3000 nM. The EC50 [15] was over 3000 nM, the EC50 [16] was 66 nM and the EC50 [17] was 710 nM. For the same compound, the EC50 [18] was over 3000 nM, the EC50 [19] was over 3000 nM and the EC50 [20] was 6 nM. It also gave an EC50 [21] of 13 ± 11 nM, an EC50 [22] of 5 ± 3 nM and an EC50 [23] of 110 nM. For the same compound, the MPI (I333V/V362I) was −30%, the MPI (I333V/V370) was −36% and the MPI (I333V/V370A) was 10%. It also gave an MPI (M367V) of 36%, an MPI (R361K/V362I/L363M) of 36% and an MPI (T33N/V370A) of 70%. The MPI (T332N/V370A) was 70%, the MPI (T332S/V362I/prR41G) was −30% and the MPI (V362I) was 68%. The MPI (V362I/A366V) was −109%, the MPI (V362I/A366V/V370M) was −62% and the MPI (V362I/H219Q) was 60%. For the same compound, the MPI (V362I/H219Q/T332S) was 52%, the MPI (V362I/V370A) was 31% and the MPI (V362I/V370M) was 51%. For the same compound, the MPI (V370A) was 84%, the MPI (V370M) was 78% and the MPI (Wild type) was 94%. For the same compound, the MPI (ΔV370) was 60%.
